Laboratory results reported in ChEMBL document CHEMBL6096630, “Enhancing therapeutic efficacy in homologous recombination-proficient pancreatic cancer via the combination of PARP1-PROTAC and a BRD4 inhibitor” (Bioorg Med Chem, 2024).
Active and inactive are the calls of the source. The rule behind the calls is not given here.

Tests used:
PANC-1 [1] = experiment: Induction of cell cycle arrest in human PANC-1 cells assessed as decrease in CDK6 level at 2 uM incubated for 24 hrs in presence of JQ1 by […]; type: functional
PANC-1 [2] = experiment: Anti-migration activity in human PANC-1 cells at 2 uM in presence of JQ1 incubated for 24 hrs by transwell assay relative to control; type: functional
[3] = target: T1, Protein cereblon/Poly [ADP-ribose] polymerase 1 (Homo sapiens, UniProt P09874+Q96SW2); experiment: PROTAC activity at CRBN/PARP1 in human PANC-1 cells assessed as induction of PARP1 degradation incubated for 24 hrs by Western blot analysis; type: cell-based
[4] = target: T1, Protein cereblon/Poly [ADP-ribose] polymerase 1; experiment: PROTAC activity at CRBN/PARP1 in human PANC-1 cells assessed as induction of PARP1 degradation incubated for 24 hrs by Western blot analysis relative to control; type: cell-based
Target sequence in this assay (P09874 2-1014 limits assumed): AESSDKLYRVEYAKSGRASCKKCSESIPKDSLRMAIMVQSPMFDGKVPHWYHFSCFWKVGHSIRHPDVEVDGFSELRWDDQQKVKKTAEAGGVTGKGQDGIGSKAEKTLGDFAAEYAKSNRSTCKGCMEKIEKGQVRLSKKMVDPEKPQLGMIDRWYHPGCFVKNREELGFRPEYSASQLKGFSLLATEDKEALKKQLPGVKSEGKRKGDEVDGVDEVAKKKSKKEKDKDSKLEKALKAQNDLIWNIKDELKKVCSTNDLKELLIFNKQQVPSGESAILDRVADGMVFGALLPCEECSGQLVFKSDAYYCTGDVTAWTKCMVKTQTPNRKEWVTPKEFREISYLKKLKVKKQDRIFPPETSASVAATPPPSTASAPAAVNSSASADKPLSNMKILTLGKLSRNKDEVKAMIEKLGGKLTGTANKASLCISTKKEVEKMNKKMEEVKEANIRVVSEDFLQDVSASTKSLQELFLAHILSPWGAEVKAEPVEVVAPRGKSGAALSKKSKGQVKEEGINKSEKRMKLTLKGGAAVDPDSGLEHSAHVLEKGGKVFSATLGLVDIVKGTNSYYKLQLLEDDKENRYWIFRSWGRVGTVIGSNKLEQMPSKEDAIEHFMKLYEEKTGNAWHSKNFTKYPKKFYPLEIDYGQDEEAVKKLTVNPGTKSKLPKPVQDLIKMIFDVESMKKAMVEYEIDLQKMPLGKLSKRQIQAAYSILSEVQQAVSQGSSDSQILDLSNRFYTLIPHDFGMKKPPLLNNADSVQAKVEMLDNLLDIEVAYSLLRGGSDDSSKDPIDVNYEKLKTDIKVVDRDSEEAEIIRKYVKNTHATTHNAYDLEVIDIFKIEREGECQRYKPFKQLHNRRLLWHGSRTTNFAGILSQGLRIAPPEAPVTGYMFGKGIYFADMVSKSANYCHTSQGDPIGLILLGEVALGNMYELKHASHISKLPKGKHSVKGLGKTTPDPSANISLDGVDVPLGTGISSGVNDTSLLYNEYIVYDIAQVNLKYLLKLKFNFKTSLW
Target sequence in this assay (Q96SW2 whole entry partner): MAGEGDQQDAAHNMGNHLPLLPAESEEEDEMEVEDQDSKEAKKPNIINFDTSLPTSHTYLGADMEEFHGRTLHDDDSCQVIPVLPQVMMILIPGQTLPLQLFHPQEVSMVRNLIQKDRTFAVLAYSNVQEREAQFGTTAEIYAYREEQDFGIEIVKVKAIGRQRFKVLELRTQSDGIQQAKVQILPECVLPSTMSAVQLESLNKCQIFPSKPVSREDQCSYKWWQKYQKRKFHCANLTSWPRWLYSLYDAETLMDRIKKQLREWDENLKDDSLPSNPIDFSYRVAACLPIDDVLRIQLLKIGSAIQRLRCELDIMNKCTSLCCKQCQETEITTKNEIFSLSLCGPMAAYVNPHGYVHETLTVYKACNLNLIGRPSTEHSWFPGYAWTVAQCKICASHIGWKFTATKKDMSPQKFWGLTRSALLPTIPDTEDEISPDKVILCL

PANC-1 [5] = experiment: Induction of DNA damage in human PANC-1 cells assessed as increase in gamma-H2AX level at 0.6 to 10 uM incubated for 48 hrs by Western blot analysis; type: functional, cell-based; conditions: dose 0.6-10 µM
PANC-1 [6] = experiment: Induction of cell cycle arrest in human PANC-1 cells assessed as decrease in cyclin D1 level at 2 uM incubated for 24 hrs in presence of JQ1 by […]; type: functional
[7] = target: T1, Protein cereblon/Poly [ADP-ribose] polymerase 1; experiment: PROTAC activity at CRBN/PARP1 in human BXPC-3 cells assessed as induction of PARP1 degradation at 2 uM incubated for 24 hrs by immunofluorescence based analysis; type: cell-based
Target sequence in this assay (P09874 2-1014 limits assumed): as the sequence (P09874 2-1014 limits assumed) above
Target sequence in this assay (Q96SW2 whole entry partner): as the sequence (Q96SW2 whole entry partner) above

PANC-1 [8] = experiment: Induction of apoptosis in human PANC-1 cells assessed as increase in Bax level at 2 uM incubated for 48 hrs in presence of JQ1 by Western blot analysis; type: functional, cell-based
[9] = Toxicity in BALB/c mouse xenografted with human PANC-1 cells assessed as pathological changes in lung at 20 mg/kg, ip for 4 weeks administered for 5 days consecutively and 2 days without treatment on every week in presence of OL by H and E staining based analysis; type: organism-based; conditions: in vivo, 672 h
[10] = Toxicity in BALB/c mouse xenografted with human PANC-1 cells assessed as animal morbidity at 20 mg/kg, ip for 4 weeks administered for 5 days consecutively and 2 days without treatment on every week; type: organism-based; conditions: in vivo, 672 h
PANC-1 [11] = experiment: Antitumor activity against human PANC-1 cells xenografted in BALB/c mouse at 20 mg/kg, ip for 4 weeks administered for 5 days consecutively and 2 days without treatment on every week in presence of OL relative to control; type: functional; conditions: PANC-1, 672 h, read-out: TGI
PANC-1 [12] = experiment: Induction of cell cycle arrest in human PANC-1 cells assessed as accumulation at G2/M phase at 1 uM incubated for 24 hrs in presence of OL by PI staining based flow cytometry; type: functional
PANC-1 [13] = experiment: Induction of apoptosis in human PANC-1 cells assessed as necrotic cells at 0.12 uM incubated for 48 hrs by Annexin V-FITC/PI staining based flow cytometry (reference value: 3.09 %); type: functional
PANC-1 [14] = experiment: Induction of apoptosis in human PANC-1 cells assessed as late apoptotic cells at 1 uM incubated for 48 hrs in presence of OL by Annexin V-FITC/PI staining based flow cytometry (reference value: 3.87 %); type: functional
PANC-1 [15] = experiment: Induction of apoptosis in human PANC-1 cells assessed as early apoptotic cells at 0.12 uM incubated for 48 hrs by Annexin V-FITC/PI staining based flow cytometry (reference value: 1.41 %); type: functional
[16] = Toxicity in BALB/c mouse xenografted with human PANC-1 cells assessed as body weight loss at 20 mg/kg, ip for 4 weeks administered for 5 days consecutively and 2 days without treatment on every week; type: organism-based; conditions: in vivo, 672 h
PANC-1 [17] = experiment: Induction of cell cycle arrest in human PANC-1 cells assessed as accumulation at G1 phase at 1 uM incubated for 24 hrs by PI staining based flow cytometry (reference value: 51.70 %); type: functional
PANC-1 [18] = experiment: Induction of cell cycle arrest in human PANC-1 cells assessed as accumulation at G2 phase at 0.5 uM incubated for 24 hrs by PI staining based flow cytometry (reference value: 9.36 %); type: functional
PANC-1 [19] = experiment: Induction of apoptosis in human PANC-1 cells assessed as viable cells at 0.5 uM incubated for 48 hrs by Annexin V-FITC/PI staining based flow cytometry (reference value: 91.64 %); type: functional; conditions: read-out: Activity
[20] = Toxicity in BALB/c mouse xenografted with human PANC-1 cells assessed as pathological changes in heart at 20 mg/kg, ip for 4 weeks administered for 5 days consecutively and 2 days without treatment on every week in presence of OL by H and E staining based analysis; type: organism-based; conditions: in vivo, 672 h
PANC-1 [21] = experiment: Induction of DNA damage in human PANC-1 cells assessed as decrease in BRCA1 level at 1 uM in presence of OL by Western blot analysis; type: functional, cell-based
PANC-1 [22] = experiment: Induction of cell cycle arrest in human PANC-1 cells assessed as accumulation at G2 phase at 0.25 uM incubated for 24 hrs by PI staining based flow cytometry (reference value: 9.36 %); type: functional
PANC-1 [23] = experiment: Induction of apoptosis in human PANC-1 cells assessed as necrotic cells at 1 uM incubated for 48 hrs in presence of OL by Annexin V-FITC/PI staining based flow cytometry (reference value: 3.09 %); type: functional
[24] = Toxicity in BALB/c mouse xenografted with human PANC-1 cells assessed as drug tolerance at 20 mg/kg, ip for 4 weeks administered for 5 days consecutively and 2 days without treatment on every week; type: organism-based; conditions: in vivo, 672 h
PANC-1 [25] = experiment: Induction of cell cycle arrest in human PANC-1 cells assessed as accumulation at S phase at 1 uM incubated for 24 hrs in presence of OL by PI staining based flow cytometry (reference value: 38.94 %); type: functional
PANC-1 [26] = experiment: Induction of apoptosis in human PANC-1 cells assessed as late apoptotic cells at 1 uM incubated for 48 hrs by Annexin V-FITC/PI staining based flow cytometry (reference value: 3.87 %); type: functional
PANC-1 [27] = experiment: Induction of cell cycle arrest in human PANC-1 cells assessed as accumulation at G1 phase at 1 uM incubated for 24 hrs in presence of OL by PI staining based flow cytometry (reference value: 51.70 %); type: functional
[28] = Toxicity in BALB/c mouse xenografted with human PANC-1 cells assessed as pathological changes in heart at 20 mg/kg, ip for 4 weeks administered for 5 days consecutively and 2 days without treatment on every week by H and E staining based analysis; type: organism-based; conditions: in vivo, 672 h
PANC-1 [29] = experiment: Induction of apoptosis in human PANC-1 cells assessed as late apoptotic cells at 0.12 uM incubated for 48 hrs by Annexin V-FITC/PI staining based flow cytometry (reference value: 3.87 %); type: functional
PANC-1 [30] = experiment: Induction of apoptosis in human PANC-1 cells assessed as late apoptotic cells at 0.5 uM incubated for 48 hrs by Annexin V-FITC/PI staining based flow cytometry (reference value: 3.87 %); type: functional
PANC-1 [31] = experiment: Induction of apoptosis in human PANC-1 cells assessed as viable cells at 1 uM incubated for 48 hrs by Annexin V-FITC/PI staining based flow cytometry (reference value: 91.64 %); type: functional; conditions: read-out: Activity

For `O=C1CCC(N2C(=O)c3cccc(NC(=O)CNCCCCCCCCCCC(=O)N4CCN(C(=O)c5cc(Cc6n[nH]c(=O)c7ccccc67)ccc5F)CC4)c3C2=O)C(=O)N1` (configuration not stated), the Activity (PANC-1 [1]) was “Active”, the Activity (PANC-1 [2]) was 84.4% and the DC50 [3] was 2.55 nM. The Activity ([3]; dose <= 10.0 µM) was “Dose-dependent-effect”, the Emax [4] was greater than 95% and the Activity (PANC-1 [5]) was “Active”. The Activity (PANC-1 [6]) was “Active”, the Activity [7] was “Active” and the Activity (PANC-1 [8]) was “Active”.

With `Cc1sc2c(c1C)C(c1ccc(Cl)cc1)=N[C@@H](CC(=O)OC(C)(C)C)c1nnc(C)n1-2` the Activity [9] was “Non-toxic”, the Activity [10] was “Non-toxic” and the inhibition in vivo at 20 mg/kg (PANC-1 [11]) was 80.7%. The Activity (PANC-1 [12]) was “Active; Only A Slight Increase Observed”, the Activity (PANC-1 [13]) was 2.94% and the Activity (PANC-1 [14]) was 21.52%. For the same compound, the Activity (PANC-1 [15]) was 2.83%, the Activity [16] was “Toxic” and the Activity (PANC-1 [17]) was 58.49%. The Activity (PANC-1 [18]) was 10.56%, the viability at 0.5 µM (PANC-1 [19]) was 82.8% and the Activity [20] was “Non-toxic”. For the same compound, the Activity (PANC-1 [21]) was “Active”, the Activity (PANC-1 [22]) was 12.15% and the Activity (PANC-1 [23]) was 4.77%. For the same compound, the Activity [24] was “Non-toxic”, the Activity (PANC-1 [25]) was 25.85% and the Activity (PANC-1 [26]) was 9.46%. The Activity (PANC-1 [27]) was 58.42%, the Activity [28] was “Non-toxic” and the Activity (PANC-1 [29]) was 3.99%. It also gave an Activity (PANC-1 [30]) of 10.08% and a viability at 1 µM (PANC-1 [31]) of 80.3%.
